Tests used:
Phakopsora pachyrhizi = experiment: Protective control of soy bean rust on soy beans (Example 5); format: in vivo; settings: 500 ppm, sprayed to run-off 1 day before inoculation, soy bean seedlings, assessed after fourteen days; untreated plants 90% infected
Septoria tritici = experiment: Preventative control of leaf blotch on wheat (Example 4); format: in vivo; settings: 500 ppm, sprayed the day before inoculation, wheat seedlings, assessed after 4 weeks; untreated plants 90% infected
Alternaria solani = settings: 500 ppm, sprayed the day before inoculation, tomato seedlings, assessed after 5 days; untreated plants 90% infected
Procedure: Preventative Fungicidal Control of Early Blight on Tomatoes (Alternaria solani)
Young seedlings of tomato plants were grown in pots. These plants were sprayed to run-off with an aqueous suspension, containing the concentration of active ingredient or mixture mentioned in the table below. The next day, the treated plants were inoculated with an aqueous suspension of Alternaria solani. Then the trial plants were immediately transferred to a humid chamber. After 5 days at 18 to 20° C. and a relative humidity close to 100%, the extent of fungal attack on the leaves was visually assessed as % diseased leaf area.

Q: How did the “infection (% diseased leaf area)” value (Phakopsora pachyrhizi) turn out when “6-Methyl-5H-Pyrrolo[3″,4″:5,6][1,4]dithiino-[2,3-C]isothiazole-3-carbonitrile-5,7(6H)-dione [Example 1.1]” was run?
A: The value was “less than or equal to 1%”.

Q: What about the “infection (% diseased leaf area)” value (Septoria tritici) of the same substance?
A: Its value is “less than or equal to 3%”.

Q: What about the “infection (% diseased leaf area)” value (Alternaria solani) of the same substance?
A: The value was “less than or equal to 5%”.

Source: patent US20150315212A1, “SUBSTITUTED 1,4-DITHIINE DERIVATIVES AND THEIR USE AS FUNGICIDES” (BASF SE, priority 2012, published 2015)
